Measured values: PubChem BioAssay AID1963831 (Molecular Pharmacology Branch, DTP, NCI, 2024)

Tested on: 889142-216-R-J1-PDC complex spheroid viability
Test: Anticancer human tumor 889142-216-R-J1-PDC patient-derived bladder carcinoma cell line growth inhibition [POLQ]
Details: for IC50: curve of first compound; for viability, T/C: stronger effect = lower value; active means viability on the fitted dose curve at most 10% of control; inactive means the rest
Procedure: Multicellular complex tumor spheroid response to Polymerase (POL) inhibitors (novobiocin, ART-558, RP6685) in combination with a variety of drugs and investigational agents in selected tumor cell lines
The POL inhibitors (novobiocin, ART-558, and RP6685) were evaluated both individually and in combination with standard of care and investigational anticancer small molecules within a complex spheroid model of solid tumors. . Complex spheroids include a stromal component modeled by human endothelial cells (HUVEC) and fibroblasts modeled by human mesenchymal stem cells (MSCs). The concentration ranges selected for each drug and investigational agent were based upon clinically achievable concentrations if the clinical Cmax of the agent was known.
Compounds. The drugs and investigational agents: novobiocin (NSC847541), ART-558 (NSC835418), RP-6685 (NSC848927), peposertib (NSC802822), ceralasertib (NSC780249), elimusertib (NSC800525), camonsertib (NSC841442), AZD-1390 (NSC803789), olaparib (NSC753686), talazoparib (NSC767125), rucaparib (NSC756644), sotorasib (NSC818433), MRTX-1133 (NSC836407), SN-38 (NSC673596), topotecan (NSC609699), epotoside (NSC141540), doxorubicin (NSC123127), gemcitabine (NSC613327), 5-fluorouracil (NSC19893), paclitaxel (NSC125973), vemurafenib (NSC761431), MSA-2 (NSC828583), SN-011 (NSC837082), adavosertib (NSC754352), prexasertib (NSC758257), carboplatin (NSC241240) and oxaliplatin (NSC266046), were obtained from the National Cancer Institute (NCI) Developmental Therapeutics Program Chemical Repository (21). The FDA-approved anticancer drug set is available from the Developmental Therapeutics Program at https://dtp.cancer.gov/organization/dscb/obtaining/. […] The stock solutions were prepared in dimethyl sulfoxide (DMSO, Sigma-Aldrich, St. Louis, MO, cat. D2650), except for the platinum compounds which were prepared in saline (Quality Biological, Gaithersburg, MD, cat. 114-055-101), at 800-fold the tested concentration and stored at -70 degrees C prior to their use. All drugs and investigational agents were tested over a range starting from a high concentration at or near the clinical Cmax and decreasing in half-log increments. If the clinical Cmax for an agent had not been determined, the highest concentration tested was 10 microM, except for SN-38, which was tested at a high concentration of 1 microM.
Cell Culture. All cells were maintained in an incubator at 37 degrees C and 5% CO2 with 95% humidity. The PDC lines were cultured according to standard operating procedures established by the NCI PDMR (https://pdmr.cancer.gov). Table 3 of the manuscript, lists the cell lines along with the number of the three cell types plated to form the mct-spheroids and media for tumor cell growth. After thawing, all PDC lines, except 997537-175-T-J1-PDC and 415267-285-R-J2-PDC, were cultured in Matrigel-coated flasks prepared with a working solution of 1X Ham's F-12 nutrient mix, without supplementation (Thermo Fisher Scientific, cat. 11765054), 100 U/mL penicillin-streptomycin (Thermo Fisher Scientific, cat. 15140122), and 2.5% Matrigel (Corning Inc., Corning, NY, cat. 354248) for the first three passages. The two PDC lines 997537-175-T-J1-PDC and 415267-285-R-J2-PDC were cultured on uncoated flasks. The 857933-349-R-J2-PDC line was cultured in 6C/Colon 1B media containing advanced DMEM/F-12 (Thermo Fisher Scientific, cat. 12634028), 10 mM HEPES (Thermo Fisher Scientific, cat. 15630080), 1X GlutaMAX supplement (Thermo Fisher Scientific, cat. 35050061), 0.1 mg/mL primocin (InvivoGen, San Diego, CA, cat. ant-pm-2), 10% defined fetal bovine serum, heat inactivated (HyClone Laboratories Inc., Logan, UT, cat. SH30070.03HI), 50% L-WRN conditioned media (ATCC, cat. CRL-3276), 1.25 mM N-Acetyl-L-cysteine (Sigma-Aldrich, cat. A9165), 10 mM nicotinamide (Sigma-Aldrich, cat. N0636), 1X B-27 supplement (Thermo Fisher Scientific, cat. 17504044), 1X N-2 supplement (Thermo Fisher Scientific, cat. […]

[1] = second compound 0.0316 µM, first compound 0.0316 µM
[2] = second compound 0.0316 µM, first compound 0.1 µM
[3] = second compound 0.0316 µM, first compound 0.316 µM
[4] = second compound 0.0316 µM, first compound 1 µM
[5] = second compound 0.0316 µM, first compound 3.16 µM
[6] = second compound 0.0316 µM, first compound 10 µM
[7] = second compound 0.1 µM, first compound 0.0316 µM
[8] = second compound 0.1 µM, first compound 0.1 µM
[9] = second compound 0.1 µM, first compound 0.316 µM
[10] = second compound 0.1 µM, first compound 1 µM
[11] = second compound 0.1 µM, first compound 3.16 µM
[12] = second compound 0.1 µM, first compound 10 µM
[13] = second compound 0.316 µM, first compound 0.0316 µM
[14] = second compound 0.316 µM, first compound 0.1 µM
[15] = second compound 0.316 µM, first compound 0.316 µM
[16] = second compound 0.316 µM, first compound 1 µM
[17] = second compound 0.316 µM, first compound 3.16 µM
[18] = second compound 0.316 µM, first compound 10 µM
[19] = second compound 1 µM, first compound 0.0316 µM
[20] = second compound 1 µM, first compound 0.1 µM
[21] = second compound 1 µM, first compound 0.316 µM
[22] = second compound 1 µM, first compound 1 µM
[23] = second compound 1 µM, first compound 3.16 µM
[24] = second compound 1 µM, first compound 10 µM
[25] = second compound 3.16 µM, first compound 0.0316 µM
[26] = second compound 3.16 µM, first compound 0.1 µM
[27] = second compound 3.16 µM, first compound 0.316 µM
[28] = second compound 3.16 µM, first compound 1 µM
[29] = second compound 3.16 µM, first compound 3.16 µM
[30] = second compound 3.16 µM, first compound 10 µM
[31] = second compound 10 µM, first compound 0.0316 µM
[32] = second compound 10 µM, first compound 0.1 µM
[33] = second compound 10 µM, first compound 0.316 µM
[34] = second compound 10 µM, first compound 1 µM
[35] = second compound 10 µM, first compound 3.16 µM
[36] = second compound 10 µM, first compound 10 µM
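Further: spheroids exposed to compounds for seven days.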

CCCS(=O)(=O)Nc1ccc(F)c(C(=O)c2c[nH]c3ncc(-c4ccc(Cl)cc4)cc23)c1F + Cc1cccc(N(C)C(=O)C2C(O)CCN2c2nc(C)cc(C(F)(F)F)c2C#N)c1
> 10 µM: IC50 (second compound 0.0316 µM) | IC50 (second compound 0.1 µM) | IC50 (second compound 0.316 µM)
inactive: viability, T/C [1] 100% | viability, T/C [2] 116% | viability, T/C [3] 98.7% | viability, T/C [4] 105% | viability, T/C [5] 83.5% | viability, T/C [6] 50.5% | viability, T/C [7] 121% | viability, T/C [8] 101% | viability, T/C [9] 91% | viability, T/C [10] 96.5% | viability, T/C [11] 81.3% | viability, T/C [12] 48.8% | viability, T/C [13] 110% | viability, T/C [14] 86.7% | viability, T/C [15] 93.3% | viability, T/C [16] 91.7% | viability, T/C [17] 72.1% | viability, T/C [18] 60.5% | viability, T/C [19] 94.9% | viability, T/C [20] 91.1% | viability, T/C [21] 92.7% | viability, T/C [22] 90.5% | viability, T/C [23] 66.8% | viability, T/C [24] 48.9% | viability, T/C [25] 101% | viability, T/C [26] 96% | viability, T/C [27] 81.1% | viability, T/C [28] 79.2% | viability, T/C [29] 75.2% | viability, T/C [30] 44.9% | viability, T/C [31] 65.1% | viability, T/C [32] 86.2% | viability, T/C [33] 90.1% | viability, T/C [34] 66.3% | viability, T/C [35] 67% | viability, T/C [36] 38.5%
8.82 µM: IC50 (second compound 3.16 µM)
6.13 µM: IC50 (second compound 10 µM)
9.29 µM: IC50 (second compound 1 µM)

COc1cc2cc(C(=O)CCC(=O)O)sc2cc1OC + Cc1cccc(N(C)C(=O)C2C(O)CCN2c2nc(C)cc(C(F)(F)F)c2C#N)c1
> 10 µM: IC50 (second compound 0.0316 µM) | IC50 (second compound 0.1 µM) | IC50 (second compound 0.316 µM) | IC50 (second compound 1 µM) | IC50 (second compound 3.16 µM) | IC50 (second compound 10 µM)
inactive: viability, T/C [1] 85.5% | viability, T/C [2] 127% | viability, T/C [3] 89.6% | viability, T/C [4] 99.1% | viability, T/C [5] 104% | viability, T/C [6] 76.6% | viability, T/C [7] 76.5% | viability, T/C [8] 101% | viability, T/C [9] 92.7% | viability, T/C [10] 115% | viability, T/C [11] 104% | viability, T/C [12] 90.6% | viability, T/C [13] 109% | viability, T/C [14] 92.6% | viability, T/C [15] 72.3% | viability, T/C [16] 104% | viability, T/C [17] 132% | viability, T/C [18] 74.5% | viability, T/C [19] 100% | viability, T/C [20] 114% | viability, T/C [21] 97.9% | viability, T/C [22] 96.9% | viability, T/C [23] 102% | viability, T/C [24] 66.4% | viability, T/C [25] 96.8% | viability, T/C [26] 85.8% | viability, T/C [27] 89.7% | viability, T/C [28] 94.4% | viability, T/C [29] 104% | viability, T/C [30] 78.9% | viability, T/C [31] 108% | viability, T/C [32] 88.5% | viability, T/C [33] 78.5% | viability, T/C [34] 80.1% | viability, T/C [35] 72.3% | viability, T/C [36] 65.6%
